Measured values: US20070111251A1, “Chemical address tags” (priority 2003, published 2007)

What was measured:
dsDNA = experiment: Fluorometric titration of styryl dyes with dsDNA in buffer solution; format: binding, Salmon; details: for em^free / Øf^free: free dye; for fluorescence emission increase with DNA versus free compound: highest concentration of DNA tested, 50 μg mL^−1; for Øf^DNA: quantum yield with dsDNA; for Øf^free: quantum yield; for max: spectrophotometric properties of the styryl dyes; for em^DNA: with dsDNA
Protocol: In some embodiments, the synthesis of compounds B was achieved by refusing with the pyridine derivatives and iodomethane for 2 hours, and compound B crystallized out in ethyl acetate. The condensation with aldehydes (A) and compound B was performed by refusing with piperidine for 2 hours in EtOH. After cooling to room temperature, the crystallized compounds were filtered and washed with ethyl acetate. With these purified compounds, the fluorescence intensity change upon addition of DNA was tested.
With a series of concentrations of dsDNA (double stranded DNA) added to compound 1, a linear increase in the fluorescence intensities was observed. (FIG. 17). […] At the highest concentration of DNA tested (50 μg mL^−1), the fluorescence emission reached up to 13.3 times higher than that of the free compound. Briefly, FIGS. 18A-18C show the absorption and fluorescence spectra of compounds 1, 2, and 3 (Dye 1, 2, 3 [50 μM], dsDNA [50 μg mL^−1]). A blue shift of 17 nm in the emission wavelength upon DNA addition was observed, without a significant excitation wavelength shift. The structure of compound 1 includes a 2,4,5-trimethoxy group from the benzaldehyde moiety and a unique adamantyl pyridinium functionality.
Unless otherwise noted, starting materials and solvents were purchased from commercial suppliers, and used without purification. Ethanol (EtOH) and ethyl acetate (EA) from Acros Organics (Fisher Scientific, UK) were used as the reaction solvents without any prior purification. Salmon testes solid dsDNA, and phosphate buffered saline (PBS) (NaCl 120 mM, KCl 2.7 mM, and phosphate buffer 10 mM, pH=7.4 at 24° C.) were purchased from Sigma-Aldrich and needed no further purification. Fluorescence intensities were measured by a Jobin Yvon Horiba FluoroMAX-3 fluorimeter (Horiba Group, Kyoto, Japan) with a quartz cuvette cell (10 mm×10 mm×4.5 cm; Starna (Atascadero, Calif.). ^1H-NMR (200 MHz) spectra were determined on Gemini 200 spectrometer (Varian, Inc., Palo Alto, Calif.). Chemical shifts were reported in parts per million (ppm) relative to the line of a singlet at 2.50 ppm for DMSO-d6 and coupling constants (j) are in Hertz (Hz). The following abbreviations are used for spin multiplicity: s=singlet, d=doublet, t=triplet, m=multiplet, and b=broad. All dye products were identified by LC-MS from Agilent Technology (Palo Alto, Calif.), using a C18 column (20×4.0 mm), with 4 minutes elution using a gradient of 5-95% CH3CN (containing 1% acetic acid)-H2O (containing 1% acetic acid), with UV detector at %=400 nm and an electrospray ionization source.

[1] = tested on: live UACC-62 human melanoma cells; experiment: Cell-based screening of extended styryl library: nuclear staining of live cells; details: live UACC-62 cells; compounds 1-3 at 500 μM
Source text: In one preferred embodiment, an extended styryl dye library, composed of 855 compounds, was synthesized (See, Example 7) and screened for the subcellular localization in live […] human melanoma cells on glass bottom 96-well plates by the combinatorial library synthesis methods disclosed herein. […] The compounds were resynthesized on large scale for further study. (FIG. 16).
Therefore, both 2,4,5-trunethoxy groups and the adamantyl group are important in the specific interaction of compound 1 and DNA. The three related compounds 1, 2, and 3 were incubated in live UACC-62 human melanoma cells to compare their nuclear localization properties. (FIG. 19).

HeLa cells = experiment: Kinetic imaging of NBD-triazine probe uptake and sequestration, fitted to nested two-compartment transport model; format: cell-based; details: median over optimal solutions within 5% of the best fit
Method in brief: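 HeLa cells (3000/well, plated 24 h earlier) imaged live with 10 μM NBD probe in RPMI containing 1.0 mM bromophenol blue, about 2 h for influx, then washed and imaged 6 h for efflux, every ~7 min. Perinuclear pixel-intensity CV fitted to a nested two-compartment transport model by simulated annealing.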

[2] = pyridine derivatives; cited from earlier work

Compound | Øf^DNA/Øf^free (dsDNA) | em^free (dsDNA) [nm] | fluorescence emission increase with DNA versus free compound (dsDNA) [fold] | Øf^DNA (dsDNA) | Øf^free (dsDNA) | max (dsDNA) [nm] | em^DNA (dsDNA) [nm] | nuclear staining / nuclear localization in live cells [1] | median Pap(cyto) (apparent partition coefficient between extracellular medium and cytosol) (HeLa cells) | median Pap(ves) (apparent partition coefficient between cytosol and intracellular vesicles, k(ves)in/k(ves)out) (HeLa cells) | pKa [2] | also measured
COc1cc(OC)c(OC)cc1C=Cc1cc[n+](C23CC4CC(CC(C4)C2)C3)cc1.[Br-] [Compound 1, 2-[4-[5-(trimethyoxy)phenyl]-ethenyl-1-adamantyl]-4-methylpyridinium bromide] | 13.3 | 583 | 13.3 | 0.0032 | 0.00024 | 413 | 566 | clearly stains the nucleus of live cells more selectively |  |  |  | blue shift in the emission wavelength upon DNA addition (dsDNA): 17 nm; emission wavelength (dsDNA): 583 nm; excitation wavelength (dsDNA): 413 nm; fluorescence intensity change upon addition of DNA (dsDNA): strong fluorescence increase; linear fluorescence response range (dsDNA; in PBS, without self-quenching or wavelength shifts): 0.05 to 100 µM
COc1cc(C=Cc2cc[n+](C34CC5CC(CC(C5)C3)C4)cc2)cc(OC)c1OC.[Br-] [Compound 2] | 4.3 | 553 | 4.3 | 0.022 | 0.0051 | 366 | 520 | stronger fluorescence backgrounds and spread throughout the cytoplasm |  |  |  | 
COc1ccc(C=Cc2cc[n+](C34CC5CC(CC(C5)C3)C4)cc2)c(OC)c1OC.[Br-] [Compound 3] | 1.5 | 491 | 1.5 | 0.0037 | 0.0024 | 370 | 592 | stronger fluorescence backgrounds and spread throughout the cytoplasm |  |  |  | 
COc1cc(OC)c(OC)cc1C=Cc1cc[n+](C)cc1.[I-] [Compound 4, 1-Methyl-4[2-(2,4,5-trimethoxy-phenyl)-vinyl]pyridinium iodide] |  |  |  |  |  |  |  |  |  |  |  | fluorescence intensity change upon addition of DNA (dsDNA): significantly reduced the DNA response
COc1cccc(CNc2nc(NCCCCCCNc3ccc([N+](=O)[O-])c4nonc34)nc(NCCc3ccccn3)n2)c1 [Compound B9] |  |  |  |  |  |  |  |  | 15351.10 | 100.42 | ~6.0 | 
COc1ccc(CCNc2nc(NCCCCCCNc3ccc([N+](=O)[O-])c4nonc34)nc(NCCc3ccccn3)n2)cc1 [Compound D9] |  |  |  |  |  |  |  |  | 0.06 | 99497.01 | ~6.0 | 
O=[N+]([O-])c1ccc(NCCCCCCNc2nc(NCCc3ccccn3)nc(NCCC(c3ccccc3)c3ccccc3)n2)c2nonc12 [Compound F9] |  |  |  |  |  |  |  |  | 2989.27 | 2940.20 | ~6.0 | 
